Reference: the OligoGym collection
These antisense oligonucleotides have a phosphorothioate backbone; sugars and methylation of C are not fully specified.

Biological target: CHEK2
Details: ASO
Further: test concentration or dose not given here.

Sequence | remaining target (mRNA or protein) (fraction of control)
CAGTAGTTGTCATTCACACA | 0.49
GTAGAGCTGTGGATTCATTT | 0.67
TCCTTTTGCTGATGATCTTT | 0.57
CCATCAATTCCAAAACAATA | ≥ 1
TATTCATCTCTTAATGCCTT | 0.61
TTTGTGGTCTCGGCACCCTC | 0.77
AACTTCTTGACAAGGTCCAG | 0.8
TATTCCATAATTAAATCCAA | ≥ 1
AGCAGTCCCAACAGAAACAA | 0.95
ATTCTCTGGCTTTAAGTCAC | 0.63
TCAGTGACACTTGAGTCCTA | 0.87
CAGTGTCCCAGAGCTGGAGT | ≥ 1
TTCTCTGAGACTTCTGCCCA | 0.49
CCATTGCCACTGTGATCTTC | 0.46
AGAATAACTCCTAAACTCCA | 0.82
TTTTAATCTTGATGATGCAA | 0.71

Biological target: NCOA2
Details: ASO

Sequence | remaining target (mRNA or protein) (fraction of control)
TTTCTCCCATCCCACTCA | 0.87
GAAGCATATGTAAAGATA | ≥ 1
AAAACTGACTGGGTGGGA | ≥ 1
TGCACTTCATCTATGTTG | 0.5
TCAGCAGTGTCAGCAATA | ≥ 1
CATCCCACTCATCTTGAA | ≥ 1
TGCTGTGGGAAAACGGGC | 0.43
TTCATGGCACTGGTGGTA | 0.85
AAGCCAACGATGACCCTA | 0.2
GCTGTGCTTGGAGGCGAT | 0.43
GCAAGCTACCTGTGGAGT | 0.5
GTTATACCTTAGATACTG | 0.84
ATCGGCTCGGGTCGGTCA | 0.38
CATTTACTATAGACTTTG | 0.79
GGACATAGCAAGTCATCT | 0.62
TGCCTTCCAGGTTCACTA | 0.99
CCCTAAATTTCCTTGGTT | 0.82
GAGAGACAGCGAAGCACT | 0.29
CTGCGCATGGAACTTCTG | 0.45
GGGAAAAGCTGTGGTAAT | 0.79

Sequence | remaining target (mRNA or protein) (fraction of control)
CTATTAATTTTGTGTTAC | ≥ 1
CTGGCTTCAGCAGTGTCA | 0.72
CAGCAATATTTCCGTGTT | 0.88
GCTGGGTTGGCCTGAGAC | ≥ 1
TTCTGAATCAGGTAAAGG | ≥ 1
CTCTGTGAAATTCGCAGT | ≥ 1
AGGGTTGCTCATAGTTGC | 0.61
CCAACATGCAAGATGCTA | 0.83
GGATTTCCCTCTGTCTCT | 0.32
ATTCTCTTTCTTCTTGGG | 0.71
ACTCATCTTGAACACATA | ≥ 1
AACCACCAAACCTGCCCA | 0.42
TGCACATTTGTCAGGTTT | 0.18
CCAAGTTGGTCAGGACAT | ≥ 1
CTGTCAACATTTACTTGG | ≥ 1
GTAGGCACGGAGGTCACT | ≥ 1
AGAACTGGTCTTTCCTTC | 0.92
GGCCCCAGCGCATCCTTG | 0.45
TCTGCCCTTTGCTGTCAT | 0.59
GACGCCACCCTGGGAACC | 0.74

Biological target: RIPK2
Details: ASO

Sequence | remaining target (mRNA or protein) (fraction of control)
TCTTTCATGATCAAGTCCCT | 0.42
TGGTCCCGGGCGCTCAGGCC | 0.23
CCACAAGTATTTCCGGGTAA | 0.36
TTACATGCTTTTATTTTGAA | 0.5
AAAACAGTCACTTACATGCT | 0.52
ATCAGGCTGTTGACTTTATT | 0.53
GCAGATGGCCTCCCCGTTCA | 0.84
CCCGTTCATGGTCCCGGGCG | 0.6
GATAATTGTCCCTCCTTCTG | ≥ 1
CACCAAGGGCAATTTCATGC | 0.15
CCAGGCTGCAGACGTTCTGA | 0.3
AGGCTTCTGTCATTTGGTTC | 0.3
ATGCAGCCCTTTGAGAACCA | 0.18
AAGCCTGGGATTTTAGGGCA | 0.15
CATGGTCCCGGGCGCTCAGG | ≥ 1
GCAGGTCGGCGAGTTTGTGG | ≥ 1
GTCAGTAGTGTCTAGTAATT | 0.52
CGAACCAGAGCTGACTTCTT | 0.28
ATAAAGCTTTAATACTCACG | 0.93
TATCCTTTTATGAAACACAT | 0.69

Sequence | remaining target (mRNA or protein) (fraction of control)
TTATCTGCAAAGGATTGGTG | 0.45
ATTGCATCTTAGACAAGTAA | ≥ 1
AGATGGCCTCCCCGTTCATG | 0.51
GTGCTCGGTGAGGTATATCA | 0.18
TTTCCTATGTAGGAGTTCAT | ≥ 1
GATACGCCCCTGCACGAGCG | 0.65
CGTTCATGGTCCCGGGCGCT | 0.76
GGCCTCCCCGTTCATGGTCC | 0.45
ATACTTCATAAAATCAAATT | ≥ 1
AAATAACAGTCTTGAGCTTT | 0.73
ATTTTCATGGAGCTGAGAGG | 0.68
TCTATTAAACATTTTAAGAA | ≥ 1
GAGCAGCGGAGTGTGGATGT | 0.3
ATGTAACTAAATCTAGCTTT | 0.72
ATGGCCTCCCCGTTCATGGT | 0.51
TTCATGGTCCCGGGCGCTCA | 0.53
TGCATAGCTATATATATCGT | 0.77
TCCCCGTTCATGGTCCCGGG | 0.24
CCTCCCCGTTCATGGTCCCG | 0.24
TGAAATTCATTGTCCAATAA | 0.99

Biological target: MAP4K4
Details: ASO

Sequence | remaining target (mRNA or protein) (fraction of control)
GGACTCGTCAGCCCCTTCCT | 0.16
CACACAGAATCTCAGAGTTA | 0.61
GACTTGGATGATGATCTCAC | 0.86
AGACCCGGGCTGGGATCCTG | 0.92
CACTGCATTTTCCAGGCGCT | 0.49
CCTCTCCTCTTCTTCTTTGC | 0.64
CCATCCAAGTGACCAGTTTC | 0.29
AGAGTAGACTCACCAGGCAC | 0.75
TTTGATTCTTTCATATTTTA | 0.82
CCTCATCTTCATAGCACACC | 0.82
ATGTAAGCGATCCAGTCTTC | 0.67
GCTCTCATTGGATGCATGTC | 0.39
CCGCTTCTGTCTCTCTGCCA | 0.25
CTCTGCAGGGCGGGATGCAC | ≥ 1
GAACCATCTGCACATGATTT | 0.48
TGGACAATCATGGTTTTCAC | 0.71
GCATGGAATCCAGCACAGGA | 0.69
CCTGCTGCAGTCTCAGGAAA | 0.37
CTTCCTCTTCATCCTCAGTG | 0.34
GCCTTGATTTATTTTGGAGT | 0.92

Sequence | remaining target (mRNA or protein) (fraction of control)
GCTCCTTTCCTGCTGCGGTG | 0.37
GTACGTCCATTTGTTGAAAT | 0.51
AATAAAACCAACGGCATGTT | 0.81
TCCAAATGACTTAAAGGCCA | 0.68
GCCGTACATCTTCCACTGCT | 0.45
TAAACCTGACTGCTGCCACC | 0.53
AAGTTTCACCTCTGCATTCT | 0.26
AGAGGGCCGCTGCATGTAAT | 0.36
CCTTGATATCCCGGTGAATC | 0.23
AGGTGGCATCTGGGTTCTCA | 0.46
GGATCATTGTGAAGTATTTT | 0.84
ATGTCGACCCTTATAGACTT | 0.39
GGTACGATCTATATGATCCT | 0.8
CCTGCCTGGCTATTCTGCTG | 0.43
CAGTTACAAGGAATTCCAAG | 0.93
TGTAGGCATCTCTCCCCACT | 0.42
CACCACAGATGTCACTGTTG | 0.45
ACTTCCTCCTCTTCTTCCTC | 0.41
AAACAAAATGGGACCCCTTA | 0.56
GACTGAGTCTGGCGGACGAT | 0.84
